Source: patent US5977169A, “Substituted tetronic acids useful for treating HIV and other retroviruses” (priority 1997, dated 1999)

Molecular target: T1, HIV-1 protease (Human immunodeficiency virus type 1 group M subtype B, UniProt P04585)
T1 construct: The protease (or proteinase) enzyme, consisting of only 99 amino acids
Assay: In vitro HIV protease inhibitory assay (fluorescently labeled substrate, avidin-polystyrene particles)
Assay type: biochemical
Conditions: for inhibition at 3.3 µM: HIV-1 dose 3.3 μM; for inhibition at 10 µM: HIV-1 dose 10.0 μM; for inhibition at 30 µM: HIV-1 dose 30.0 μM; for inhibition at 1 µM: HIV-1 dose 1.0 μM; for inhibition at 100 µM: HIV-1 dose 100.0 μM; for inhibition at 1.1 µM: HIV-1 dose 1.1 μM
Protocol: The HIV protease screening assay is based on a fluorescently labeled substrate which can be resolved from nonlabeled cleavage product using avidin-polystyrene particles, 0.7-0.9 μm. The substrate is biotinylated at the amino terminal arginine and fluorescently labeled with fluorescein isothiocynate (FITC) at the carboxyl terminal lysine. This assay has been employed to detect novel, nonpeptidic inhibitors of HIV-1 protease. Substrate (20 μl of 0.2 μM), sample (10 μl of desired concentraion), and enzyme (10 μl of 0.1 μM) are added to a 96 well pandex plate. The assay is run in 0.1 M sodium acetate buffer at pH 5.5 in the presence of 1.0 M sodium chloride and 0.05% NP-40 and incubated in the dark for one hour at room temperature. Avidin coated polystyrene beads (40 μl of 0.1% (w/v)) are added and the incubation is continued in the dark for an additional half hour. The labeled cleavage product is separated from the unreacted substrate via filtration and is read on the IDEXX Screen Machine. (IDEXX Corporation--Portland, Me.) The data are analyzed by appropriate computer algorithms to ascertain percent inhibition values.
The Activity Table showing the results of the HIV Protease Inhibitory Assay appears below in TABLE 1. The table has three columns, the left column provides the code number of the compound for easy cross reference to structure tables and detailed procedures, the middle column provides the concentration of test compound and the column on the right provides the percent inhibition.

| Structure (SMILES) | inhibition at 3.3 µM | inhibition at 10 µM | inhibition at 30 µM | inhibition at 1 µM | inhibition at 100 µM | inhibition at 1.1 µM | inhibition at 3.7 µM (HIV-1 dose 3.7 μM) | inhibition at 11 µM (HIV-1 dose 11.0 μM) |
| --- | --- | --- | --- | --- | --- | --- | --- | --- |
| CCCCC(CCc1ccccc1)C1OC(=O)C(C(c2ccccc2)C2CC2)=C1O (single isomer, unassigned) [GX-1, 2(5H)-Furanone, 3-(cyclopropylphenylmethyl)-4-hydroxy-5-(1-(2-phenyl-ethyl)pentyl)-] | 74.6% | 89.2% | 74% |  |  |  |  |  |
| CCC1CCCCC12OC(=O)C(C(c1ccccc1)C1CC1)=C2O (single isomer, unassigned) [IX-33, 1-Oxaspiro[4.5]dec-3-en-2-one, 3-(cyclopropylphenylmethyl)-4-hydroxy-6-ethyl-] | 99% | 99.4% | 97.6% |  |  |  |  |  |
| O=C1OC(Cc2ccccc2)C(O)=C1C(c1ccccc1)C1CC1 (stereo not drawn) [BX-1, 5H-Furan-2-one, 5-benzyl-3-cyclopropylphenylmethyl-4-hydroxy-] |  | 80.1% |  | 18.7% | 90.5% |  |  |  |
| O=C1OC(CCc2ccccc2)C(O)=C1C(c1ccccc1)C1CC1 (stereo not drawn) [BX-2, 2(5H)-Furanone, 3(cyclopropylphenylmethyl)-4-hydroxy-5-(2-phenylethyl)-] |  | 81% |  | 47.2% | 81.4% |  |  |  |
| O=C1OC(CCCc2ccccc2)C(O)=C1C(c1ccccc1)C1CC1 (stereo not drawn) [BX-3, 2(5H)-Furanone, 3-(cyclopropylphenylmethyl)-4-hydroxy-5-(3-phenylpropyl)-] |  | 90.6% |  | 46% | 93.2% |  |  |  |
| CCCC1OC(=O)C(C(c2ccccc2)C2CC2)=C1O (stereo not drawn) [BX-4, 2(5H)-Furanone, 3-(cyclopropylphenylmethyl)-4-hydroxy-5-propyl-] |  | 61.1% |  | < 10% | 83.3% |  |  |  |
| O=C1OC(CCC2CCCCC2)C(O)=C1C(c1ccccc1)C1CC1 (stereo not drawn) [BX-5, 2(5H)-Furanone, 5-(2-cyclohexylethyl)-3-(cyclopropylphenylmethyl)-4-hydroxy-] |  | 61.2% |  | 12.6% | 71.5% |  |  |  |
| O=C1OC(CC=Cc2ccccc2)C(O)=C1C(c1ccccc1)C1CC1 (stereo not drawn) [BX-6, 2(5H)-Furanone, 3-(cyclopropylphenylmethyl)-4-hydroxy-5-(3-phenyl-2-propenyl)-] | 65.7% | 77.2% | 82.1% |  |  |  |  |  |
| O=C1OC(C(O)C=Cc2ccccc2)C(O)=C1C(c1ccccc1)C1CC1 (stereo not drawn) [BX-7, 2(5H)-Furanone, 3-(cyclopropylphenylmethyl)-4-hydroxy-5-(1-hydroxy-3--phenyl-2-propenyl)-] | < 10% | 18% | 40% |  |  |  |  |  |
| O=C1OC(C(O)CCc2ccccc2)C(O)=C1C(c1ccccc1)C1CC1 (stereo not drawn) [BX-8, 2(5H)-Furanone, 3-(cyclopropylphenylmethyl)-4-hydroxy-5-(1-hydroxy-3--phenylpropyl)-] | 51% | 73.3% | 78.2% |  |  |  |  |  |
| CCC(C1=C(O)C(Cc2ccccc2)OC1=O)c1ccccc1 (stereo not drawn) [BX-9, 2(5H)-Furanone, 4-hydroxy-5-(phenylmethyl)-3-(1-phenylpropyl)-] | 50.1% | 75.1% | 86.1% |  |  |  |  |  |
| CC(C)C1OC(=O)C(C(c2ccccc2)C2CC2)=C1O (stereo not drawn) [BX-10, 2(5H)-Furanone, 3-(cyclopropylphenylmethyl)-4-hydroxy-5-(1-methylethyl)-] | 40.5% | 74.6% | 98.6% |  |  |  |  |  |
| CCCCC1OC(=O)C(C(c2ccccc2)C2CC2)=C1O (stereo not drawn) [BX-11, 2(5H)-Furanone, 5-butyl-3-(cyclopropylphenylmethyl)-4-hydroxy-] | 45.1% | 78.3% | 93.4% |  |  |  |  |  |
| CCCC1(CCC)OC(=O)C(C(c2ccccc2)C2CC2)=C1O (stereo not drawn) [BX-12, 2(5H)-Furanone, 3-(cyclopropylphenylmethyl)-4-hydroxy-5,5-dipropyl-] | 110% | 112% | 95.3% |  |  |  |  |  |
| CC(C)C1(C(C)C)OC(=O)C(C(c2ccccc2)C2CC2)=C1O (stereo not drawn) [BX-13, 2(5H)-Furanone, 3-(cyclopropylphenylmethyl)-4-hydroxy-5,5-bis(1-methylethyl)-] | 104% | 108% |  |  |  | 94.1% |  |  |
| CCC1(CC)OC(=O)C(C(c2ccccc2)C2CC2)=C1O (stereo not drawn) [BX-14, 2(5H)-Furanone, 3-(cyclopropylphenymethyl)-5,5-diethyl-4-hydroxy-] | 92.7% | 94% | 99% |  |  |  |  |  |
| CCCCC1(CCCC)OC(=O)C(C(c2ccccc2)C2CC2)=C1O (stereo not drawn) [BX-15, 2(5H)-Furanone, 5,5-dibutyl-3-(cyclopropylphenylmethyl)-4-hydroxy-] | 115% | 118% | 122% |  |  |  |  |  |
| CCC(C1=C(O)C(CCc2ccccc2)OC1=O)c1ccccc1 (stereo not drawn) [BX-16, 2(5H)-Furanone, 4-hydroxy-5-(2-phenylethyl)-3-(1-phenylpropyl)-] | 41.4% | 71.4% | 80.3% |  |  |  |  |  |
| O=C1OC2(CCCC2)C(O)=C1C(c1ccccc1)C1CC1 (stereo not drawn) [CX-1, 1-Oxaspiro[4.4]non-3-en-2-one, 3-(cyclopropylphenylmethyl)-4-hydroxy-] |  |  |  |  | 109% |  | 109% | 115% |
| O=C1OC2(CCCCCCC2)C(O)=C1C(c1ccccc1)C1CC1 (stereo not drawn) [CX-2, 1-Oxaspiro[4.7]dodec-3-en-2-one, 3-(cyclopropylphenylmethyl)-4-hydroxy-] |  | 104% | 110% |  |  | 96% |  |  |
| CC1(CCc2ccccc2)OC(=O)C(C(c2ccccc2)C2CC2)=C1O (stereo not drawn) [CX-3, 2(5H)-Furanone, 3-(cyclopropylphenylmethyl)-4-hydroxy-5-methyl-5-(2--phenylethyl)-] | 98.1% | 111% | 118% |  |  |  |  |  |
| CCCC1(CCCc2ccccc2)OC(=O)C(C(c2ccccc2)C2CC2)=C1O (stereo not drawn) [DX-1, 2(5H)-Furanone, 3-(cyclopropylphenylmethyl)-4-hydroxy-5-(3-phenyl-propyl)-5-propyl-] | 108% | 106% | 105% |  |  |  |  |  |
| CC1(Cc2ccccc2)OC(=O)C(C(c2ccccc2)C2CC2)=C1O (stereo not drawn) [DX-2, 2(5H)-Furanone, 3-(cyclopropylphenylmethyl)-4-hydroxy-5-methyl-5-(phenyl-methyl)-] | 94.5% | 98.2% | 104% |  |  |  |  |  |
| CCC1(Cc2ccccc2)OC(=O)C(C(c2ccccc2)C2CC2)=C1O (stereo not drawn) [DX-3, 2(5H)-Furanone, 3-(cyclopropylphenylmethyl)-5-ethyl-4-hydroxy-5-(phenyl-methyl)-] | 95.5% | 103% | 105% |  |  |  |  |  |
| CCCC1(Cc2ccccc2)OC(=O)C(C(c2ccccc2)C2CC2)=C1O (stereo not drawn) [DX-4, 2(5H)-Furanone, 3-(cyclopropylphenylmethyl)-4-hydroxy-5-(phenyl-methyl)-5-propyl-] | 125% | 128% | 116% |  |  |  |  |  |
| O=C1OC(Cc2ccccc2)(Cc2ccccc2)C(O)=C1C(c1ccccc1)C1CC1 (stereo not drawn) [DX-5, 2(5H)-Furanone, 3-(cyclopropylphenylmethyl)-4-hydroxy-5,5-bis(phenylmethyl)-] | 103% | 116% | 103% |  |  |  |  |  |
